# Assay results taken from US12594276B2, “Inhibitors of human immunodeficiency virus replication” (ViiV Healthcare UK (No.5) Limited, priority 2024, dated 2026).
# Columns and labels:
# [1] = system: recombinant NL4-3 virus (nef section replaced with Renilla luciferase gene) in MT-2 cells; assay: HIV cell culture assay (antiviral activity, luciferase readout); type: cell-based; conditions: Renilla, NL43, MT-2 cells infected for 4-5 days with recombinant NL4-3 Renilla luciferase virus
# Method in brief: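 Compound activity was measured as reduction of luciferase in MT-2 cells infected for 4-5 days with serially diluted compound present. EC50 values were calculated with the median effect equation.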
# [2] = Compound cytotoxicity, XTT-based colorimetric assay; type: cell-based; conditions: human; uninfected MT2 cells, day 4, XTT; read-out: CC50
# Method in brief: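 Cells seeded as for the antiviral assay but left uninfected (MT2). Compound exposure continued to day 4. XTT reagent added and colour read. CC50 calculated.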
Structure (SMILES),EC50 [1] [nM],CC50 at 4 days [2] [nM]
"Cc1cc(C2(F)CCC(F)(F)CC2)nc2nc([C@H](Cc3cc(F)cc(F)c3)NC(=O)Cn3nc(C(F)F)c4c3C(F)(F)[C@@H]3C[C@H]43)n(-c3ccc(Cl)c4c(NS(C)(=O)=O)nn(CCN5C[C@H](F)C[C@H](F)C5)c34)c(=O)c12 (atropisomer, axis not shown; (P)) [Example 11, N-[(1S)-1-[(3P)-3-(4-chloro-1-{2-[(3R,5S)-3,5-difluoropiperidin-1-yl]ethyl}-3-methanesulfonamido-1H-indazol-7-yl)-5-methyl-4-oxo-7-(1,4,4-trifluorocyclohexyl)-3H,4H-pyrido[2,3-d]pyrimidin-2-yl]-2-(3,5-difluorophenyl)ethyl]-2-[(2S,4R)-9-(difluoromethyl)-5,5-difluoro-7,8-diazatricyclo[4.3.0.0^2,4]nona-1(6),8-dien-7-yl]acetamide]",0.009,> 20000
"Cc1cc(C2CCC(F)(F)CC2)nc2nc([C@H](Cc3cc(F)cc(F)c3)NC(=O)Cn3nc(C(F)F)c4c3C(F)(F)[C@@H]3C[C@H]43)n(-c3ccc(Cl)c4c(NS(C)(=O)=O)nn(CCN5CCOC(C)(C)C5)c34)c(=O)c12 (atropisomer, axis not shown; (P)) [Example 479, N-[(1S)-1-[(3P)-3-{4-chloro-1-[2-(2,2-dimethylmorpholin-4-yl)ethyl]-3-methanesulfonamido-1H-indazol-7-yl}-7-(4,4-difluorocyclohexyl)-5-methyl-4-oxo-3H,4H-pyrido[2,3-d]pyrimidin-2-yl]-2-(3,5-difluorophenyl)ethyl]-2-[(2S,4R)-9-(difluoromethyl)-5,5-difluoro-7,8-diazatricyclo[4.3.0.0^2,^4]nona-1(6),8-dien-7-yl]acetamide]",0.004,> 20
"Cc1cc(C2CCC(F)(F)CC2)nc2nc([C@H](Cc3cc(F)cc(F)c3)NC(=O)Cn3nc(C4CC4)c4c3C[C@@H]3C[C@H]43)n(-c3ccc(Cl)c4c(NS(C)(=O)=O)nn(CCN5CC(F)(F)C(F)(F)C5)c34)c(=O)c12 (atropisomer, axis not shown; (P)) [Example 248, N-[(1S)-1-[(3P)-3-{4-chloro-3-methanesulfonamido-1-[2-(3,3,4,4-tetrafluoropyrrolidin-1-yl)ethyl]-1H-indazol-7-yl}-7-(4,4-difluorocyclohexyl)-5-methyl-4-oxo-3H,4H-pyrido[2,3-d]pyrimidin-2-yl]-2-(3,5-difluorophenyl)ethyl]-2-[(2S,4S)-9-cyclopropyl-7,8-diazatricyclo[4.3.0.0^2,^4]nona-1(6),8-dien-7-yl]acetamide]",0.018,> 50
"COCCNc1cc(C2CCC(F)(F)CC2)nc2nc([C@H](Cc3cc(F)cc(F)c3)NC(=O)Cn3nc(C(F)F)c4c3C(F)(F)[C@@H]3C[C@H]43)n(-c3ccc(Cl)c4c(NS(C)(=O)=O)nn(CCN5CCC(F)CC5)c34)c(=O)c12 (atropisomer, axis not shown; (P)) [Example 415, N-[(1S)-1-[(3P)-3-{4-chloro-1-[2-(4-fluoropiperidin-1-yl)ethyl]-3-methanesulfonamido-1H-indazol-7-yl}-7-(4,4-difluorocyclohexyl)-5-[(2-methoxyethyl)amino]-4-oxo-3H,4H-pyrido[2,3-d]pyrimidin-2-yl]-2-(3,5-difluorophenyl)ethyl]-2-[(2S,4R)-9-(difluoromethyl)-5,5-difluoro-7,8-diazatricyclo[4.3.0.0^2,^4]nona-1(6),8-dien-7-yl]acetamide]",0.013,> 20
"Cc1cc(C2CCC(F)(F)CC2)nc2nc([C@H](Cc3cc(F)cc(F)c3)NC(=O)Cn3nc(C4CC4)c4c3C[C@@H]3C[C@H]43)n(-c3ccc(Cl)c4c(NS(C)(=O)=O)nn(CCN5C[C@@H](C)O[C@@H](C)C5)c34)c(=O)c12 (atropisomer, axis not shown; (P)) [Example 230, N-[(1S)-1-[(3P)-3-(4-chloro-1-{2-[(2R,6S)-2,6-dimethylmorpholin-4-yl]ethyl}-3-methanesulfonamido-1H-indazol-7-yl)-7-(4,4-difluorocyclohexyl)-5-methyl-4-oxo-3H,4H-pyrido[2,3-d]pyrimidin-2-yl]-2-(3,5-difluorophenyl)ethyl]-2-[(2S,4S)-9-cyclopropyl-7,8-diazatricyclo[4.3.0.0^2,^4]nona-1(6),8-dien-7-yl]acetamide]",0.006,> 50
"COCCCn1nc(NS(C)(=O)=O)c2c(Cl)ccc(-n3c([C@H](Cc4cc(F)cc(F)c4)NC(=O)Cn4nc(C(F)F)c5c4C(F)(F)[C@@H]4C[C@H]54)nc4nc(C5CCC(F)(F)CC5)cc(CN5C[C@H](F)C[C@H](F)C5)c4c3=O)c21 (atropisomer, axis not shown; (P)) [Example 488, N-[(1S)-1-[(3P)-3-[4-chloro-3-methanesulfonamido-1-(3-methoxypropyl)-1H-indazol-7-yl]-7-(4,4-difluorocyclohexyl)-5-{[(3R,5S)-3,5-difluoropiperidin-1-yl]methyl}-4-oxo-3H,4H-pyrido[2,3-d]pyrimidin-2-yl]-2-(3,5-difluorophenyl)ethyl]-2-[(2S,4R)-9-(difluoromethyl)-5,5-difluoro-7,8-diazatricyclo[4.3.0.0^2,^4]nona-1(6),8-dien-7-yl]acetamide]",0.009,> 20
"C[C@@H]1CN(CCn2nc(NS(C)(=O)=O)c3c(Cl)ccc(-n4c([C@H](Cc5cc(F)cc(F)c5)NC(=O)Cn5nc(C(F)F)c6c5C(F)(F)[C@@H]5C[C@H]65)nc5nc(C6CCC(F)(F)CC6)cc(CN6C[C@@H](C)O[C@@H](C)C6)c5c4=O)c32)C[C@H](C)O1 (atropisomer, axis not shown; (P)) [Example 528, N-[(1S)-1-[(3P)-3-(4-chloro-1-{2-[(2R,6S)-2,6-dimethylmorpholin-4-yl]ethyl}-3-methanesulfonamido-1H-indazol-7-yl)-7-(4,4-difluorocyclohexyl)-5-{[(2R,6S)-2,6-dimethylmorpholin-4-yl]methyl}-4-oxo-3H,4H-pyrido[2,3-d]pyrimidin-2-yl]-2-(3,5-difluorophenyl)ethyl]-2-[(2S,4R)-9-(difluoromethyl)-5,5-difluoro-7,8-diazatricyclo[4.3.0.0^2,^4]nona-1(6),8-dien-7-yl]acetamide]",0.006,> 20
"CO[C@@H](C)CNC(=O)Cn1nc(NS(C)(=O)=O)c2c(Cl)ccc(-n3c([C@H](Cc4cc(F)cc(F)c4)NC(=O)Cn4nc(C5CC5)c5c4C[C@@H]4C[C@H]54)nc4nc(C5CCC(F)(F)CC5)cc(C)c4c3=O)c21 (atropisomer, axis not shown; (P)) [Example 395, N-[(1S)-1-[(3P)-3-[4-chloro-3-methanesulfonamido-1-({[(2S)-2-methoxypropyl]carbamoyl}methyl)-1H-indazol-7-yl]-7-(4,4-difluorocyclohexyl)-5-methyl-4-oxo-3H,4H-pyrido[2,3-d]pyrimidin-2-yl]-2-(3,5-difluorophenyl)ethyl]-2-[(2S,4S)-9-cyclopropyl-7,8-diazatricyclo[4.3.0.0^2,^4]nona-1(6),8-dien-7-yl]acetamide]",0.034,> 20
"COCCCn1nc(NS(C)(=O)=O)c2c(Cl)ccc(-n3c([C@H](Cc4cc(F)cc(F)c4)NC(=O)Cn4nc(C(F)F)c5c4C(F)(F)[C@@H]4C[C@H]54)nc4nc(C5CCC(F)(F)CC5)cc(NCC(C)(C)N5CCOCC5)c4c3=O)c21 (atropisomer, axis not shown; (P)) [Example 546, N-[(1S)-1-[(3P)-3-[4-chloro-3-methanesulfonamido-1-(3-methoxypropyl)-1H-indazol-7-yl]-7-(4,4-difluorocyclohexyl)-5-{[2-methyl-2-(morpholin-4-yl)propyl]amino}-4-oxo-3H,4H-pyrido[2,3-d]pyrimidin-2-yl]-2-(3,5-difluorophenyl)ethyl]-2-[(2S,4R)-9-(difluoromethyl)-5,5-difluoro-7,8-diazatricyclo[4.3.0.0^2,^4]nona-1(6),8-dien-7-yl]acetamide]",0.017,> 20
"Cc1cc(C2CCC(F)(F)CC2)nc2nc([C@H](Cc3cc(F)cc(F)c3)NC(=O)Cn3nc(C(F)F)c4c3C(F)(F)[C@@H]3C[C@H]43)n(-c3ccc(Cl)c4c(NS(C)(=O)=O)nn(CCN5CC(C)(C)OC(C)(C)C5)c34)c(=O)c12 (atropisomer, axis not shown; (P)) [Example 17, N-[(1S)-1-[(3P)-3-{4-chloro-3-methanesulfonamido-1-[2-(2,2,6,6-tetramethylmorpholin-4-yl)ethyl]-1H-indazol-7-yl}-7-(4,4-difluorocyclohexyl)-5-methyl-4-oxo-3H,4H-pyrido[2,3-d]pyrimidin-2-yl]-2-(3,5-difluorophenyl)ethyl]-2-[(2S,4R)-9-(difluoromethyl)-5,5-difluoro-7,8-diazatricyclo[4.3.0.0^2,^4]nona-1(6),8-dien-7-yl]acetamide]",0.012,> 50
"Cc1cc(C2CCC(F)(F)CC2)nc2nc([C@H](Cc3cc(F)cc(F)c3)NC(=O)Cn3nc(C4CC4)c4c3C[C@@H]3C[C@H]43)n(-c3ccc(Cl)c4c(NS(C)(=O)=O)nn([C@H](C)CN5C[C@H](F)C[C@H](F)C5)c34)c(=O)c12 (relative stereo) [Example 732, N-[(1S)-1-[(3P)-3-{4-chloro-1-[(2R)-1-[(3R,5S)-3,5-difluoropiperidin-1-yl]propan-2-yl]-3-methanesulfonamido-1H-indazol-7-yl}-7-(4,4-difluorocyclohexyl)-5-methyl-4-oxo-3H,4H-pyrido[2,3-d]pyrimidin-2-yl]-2-(3,5-difluorophenyl)ethyl]-2-[(2R*,4R*)-9-cyclopropyl-7,8-diazatricyclo[4.3.0.0^2,^4]nona-1(6),8-dien-7-yl]acetamide]",0.013,> 20
